Laboratory results from publication PMC6827013, “Alpha-Glucosidase and Alpha-Amylase Inhibitory Activities of Novel Abietane Diterpenes from Salvia africana-lutea” (Antioxidants, 2019).
pIC50: −log10 of the molar value. Where two headings read alike, the source gives them in different places.

What was measured:
[1] = Trolox equivalent absorbance capacity (TEAC) assay
Method: The total anti-oxidant activity of the test sample was measured using previously described methods. Absorbance was read at 734 nm at 25 °C in a plate reader, and the results were expressed as μmole Trolox equivalents per […] of dry weight (μM TE/g DW) of the test samples.
(§1) The in vitro antioxidant activity of the isolated compounds of the methanolic extract of S. africana-lutea were investigated by evaluating their ferric-ion reducing antioxidant power (FRAP), trolox equivalent absorbance capacity (TEAC), and oxygen radical absorbance capacity (ORAC) activities. […] Phenolic compounds have been reported to be responsible for the antioxidant activity of numerous plant species by stabilization of radicals by donating electrons or by metal ion complexation, among other mechanisms. Nevertheless, other aspects can be considered, for example, the presence of vicinal hydroxyl groups is essential in a pronounced antioxidant activity. Abietane diterpenes are known for having strong antioxidant activity due to the presence of ortho-dihydroxyl groups/vicinal hydroxyls in the aromatic ring that serve as hydrogen and/or electron donating agents to the corresponding reactive species leading to the formation of the stable quinone derivatives. It has been shown that the phenolic group at the 11 position would be more implicated in the antioxidant activity. In general, phenolic compounds are expected to transfer electrons or donate protons to the reactive radicals because of the resonance stability of the phenoxy radical.

[2] = Ferric-ion reducing antioxidant power (FRAP) assay; conditions: ascorbic acid equivalents; mean ± SEM, n = 3
Method: The FRAP assay was carried out in accordance with the method described previously. […] L-Ascorbic acid was used as a standard, and the results were expressed as µmole ascorbic acid equivalents per […] of dry weight (μM AAE/g DW) of the test samples.
The in vitro antioxidant activity of the isolated compounds of the methanolic extract of S. africana-lutea were investigated by evaluating their ferric-ion reducing antioxidant power (FRAP), trolox equivalent absorbance capacity (TEAC), and oxygen radical absorbance capacity (ORAC) activities. […] Nevertheless, other aspects can be considered, for example, the presence of vicinal hydroxyl groups is essential in a pronounced antioxidant activity. […] It has been shown that the phenolic group at the 11 position would be more implicated in the antioxidant activity. In general, phenolic compounds are expected to transfer electrons or donate protons to the reactive radicals because of the resonance stability of the phenoxy radical.

[3] = Oxygen radical absorbance capacity (ORAC) assay
Source text: ORAC assay was done according to the previous method. ORAC values were expressed as micromoles of trolox equivalents (TE) per milligram of the test sample. Samples without a perfect curve were further diluted, and the dilution factors were used in the calculations of such samples.
as §1

[4] = biological target: α-glucosidase (Saccharomyces cerevisiae); assay: Alpha-glucosidase inhibitory activity (p-NPG substrate, absorbance 405 nm); type: biochemical; conditions: mean ± SEM, n = 3; NA = not active at the test concentrations
Method: Alpha-glucosidase inhibitory activity of the isolated compounds was carried out according to the standard method, with a slight modification. […] Next, 20 μL of p-NPG (5 mM) was added as a substrate and incubated further at 37 °C for 20 min. The reaction was stopped by adding 50 μL of sodium carbonate Na2CO3 (0.1 M). […] Each experiment was performed in triplicates. […] Inhibitory activity (%) = (1 − A/B) ×100(1) where A is the absorbance in the presence of the test substance and B is the absorbance of the control.

[5] = biological target: T1, α-amylase (procaine pancreas) (Sus scrofa, UniProt P00690); assay: Alpha-amylase inhibitory activity (starch substrate, DNS, absorbance 540 nm); type: biochemical; conditions: mean ± SEM, n = 3; NA = not active at the test concentrations
T1 construct: α-amylase (procaine pancreas); purchased Sigma-Aldrich, Cape town, South Africa; host or cells: pancreas
T1 sequence (P00690 16-511): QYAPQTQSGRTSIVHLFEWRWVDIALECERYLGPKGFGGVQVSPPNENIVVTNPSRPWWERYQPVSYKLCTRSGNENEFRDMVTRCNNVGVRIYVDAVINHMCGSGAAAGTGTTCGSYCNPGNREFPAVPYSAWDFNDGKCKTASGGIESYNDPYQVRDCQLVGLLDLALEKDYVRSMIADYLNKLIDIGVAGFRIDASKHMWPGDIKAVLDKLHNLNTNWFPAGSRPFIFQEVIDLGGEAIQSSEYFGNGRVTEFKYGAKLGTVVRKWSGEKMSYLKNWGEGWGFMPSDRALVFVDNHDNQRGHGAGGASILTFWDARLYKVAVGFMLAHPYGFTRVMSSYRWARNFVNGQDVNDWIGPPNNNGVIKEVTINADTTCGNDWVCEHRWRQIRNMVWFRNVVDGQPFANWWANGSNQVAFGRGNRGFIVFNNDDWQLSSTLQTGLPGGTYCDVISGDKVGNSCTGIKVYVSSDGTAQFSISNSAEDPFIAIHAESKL
Method: The alpha-amylase inhibitory activity of the extract and fractions was carried out according to the standard method, with a slight modification [24]. In a 96-well plate, the reaction mixture containing 50 μL of phosphate buffer (100 mM, pH = 6.8), 10 μL alpha amylase (2 U/mL), and 20 μL of varying concentrations of isolated compounds was pre-incubated at 37 °C for 20 min. Next, 20 μL of 1% soluble starch (100 mM phosphate buffer pH 6.8) was added as a substrate and incubated further at 37 °C for 30 min. A volume of 100 μL of the color reagent (DNS) was added and then boiled for 10 min. The absorbance of the resulting mixture was measured at 540 nm using a Multiplate Reader (Multiskan thermo scientific, version 1.00.40). […] Each experiment was performed in triplicates. The results were expressed as the percentage inhibition, which was calculated using Formula (2). Inhibitory activity (%) = (1 − A/B) ×100(2) where A is the absorbance in the presence of the test substance and B is the absorbance of the control.

[6] = Trolox equivalents, mean ± SEM, n = 3, NA = not active at the test concentrations

`COc1c(C(C)C)cc2c(c1O)[C@@]1(C(=O)O)CCC[C@](C)(COC(C)=O)C1CC2` (stereo partly shown) [Compound 1, 19-acetoxy-12-methoxycarnosic acid] gave a TEAC [1, 6] of 694.0 ±1.6 µmole TE/g, an FRAP [2] of 1217.4 ± 2.9 µM AAE/g and an ORAC [3] of 2588.2 ± 10.1 µM TE/g. For the same compound, the ORAC [3, 6] was 2588.2 ± 10.1 µmole TE/g.

In the case of `COC1c2cc(C(C)C)c(O)c(O)c2C23CCC(OC(C)=O)C(C)(C)C2C1OC3=O` (stereo not drawn) [Compound 2, 3β-acetoxy-7α-methoxyrosmanol], the TEAC [1, 6] was 635.7 ± 0.8 µmole TE/g, the FRAP [2] was 2200.9 ± 14.2 µM AAE/g and the ORAC [3, 6] was 2233.9 ± 8.0 µmole TE/g.

Work on `COC1c2cc(C(C)C)c(O)c(O)c2C23CCCC(C)(COC(C)=O)C2C1OC3=O` (stereo not drawn) [Compound 3, 19-acetoxy-7α-methoxyrosmanol] yielded a TEAC [1, 6] of 124.4 ± 0.6 µmole TE/g, an FRAP [2] of 1440.4 ± 9.1 µM AAE/g and an ORAC [3, 6] of 735.4 ± 2.0 µmole TE/g.

`COc1c(C(C)C)cc2c(c1O)C13CCCC(C)(COC(C)=O)C1CC2OC3=O` (stereo not shown) [Compound 4, 19-acetoxy-12-methoxy carnosol] gave a TEAC [1, 6] of 440.1 ± 1.5 µmole TE/g, an FRAP [2] of 1257.0 ± 6.7 µM AAE/g and an ORAC [3, 6] of 559.7 ± 15.2 µmole TE/g.

`CC(C)c1cc2c(c(O)c1O)[C@]13CCC[C@](C)(C(O)OC1=O)C3CC2` (stereo partly shown) [Compound 5, clinopodiolide A] gave a TEAC [1] of 862.2 ± 1.4 µM TE/g, a TEAC [1, 6] of 862.2 ± 1.4 µmole TE/g and an FRAP [2] of 2262.9 ± 11.0 µM AAE/g. The ORAC [3, 6] was 2357.2 ± 0.1 µmole TE/g.

For `COc1c(C(C)C)cc2c(c1O)[C@]13CCC[C@](C)(C(O)OC1=O)C3CC2` (stereo partly shown) [Compound 6, clinopodiolide B], the “Alpha-Glucosidase IC50” value [4] was 81.7 ± 2.1 µg/mL, the TEAC [1] was 705.5 ± 2.0 µM TE/g and the TEAC [1, 6] was 724.9 ± 1.3 µmole TE/g. It also gave an FRAP [2] of 1480.0 ± 3.9 µM AAE/g and an ORAC [3, 6] of 1502.5 ± 21.2 µmole TE/g.

Work on `CC1(C)CC[C@]2(C(=O)O)CC[C@]3(C)C(=CC[C@@H]4[C@@]5(C)CC[C@H](O)C(C)(C)[C@@H]5CC[C@]43C)[C@@H]2C1` [Compound 7, oleanolic acid] yielded an FRAP [2] of 347.8 ± 3.7 µM AAE/g.

For `CC1CCC23CCC4(C)C5(C)CCC6C(C)(C)C(O)CCC6(C)C5C=CC4(OC2=O)C3C1C` (stereo not shown) [Compound 9, 11,12-dehydroursolic acid lactone], the “Alpha-Glucosidase IC50” value [4] was 85.8 ± 2.3 µg/mL and the FRAP [2] was 283.4 ± 3.9 µM AAE/g.

With `CC1(C)CC[C@]2(C)CC[C@]3(C)C(=CC[C@@H]4[C@@]5(C)CC[C@H](O)C(C)(C)[C@@H]5CC[C@]43C)[C@@H]2C1` [Compound 10, β-amyrin] the pIC50 [5] was 3.75, the “Alpha-Glucosidase IC50” value [4] was 17.1 ± 1.0 µg/mL and the FRAP [2] was 412.2 ± 13.0 µM AAE/g.

Compound `O=C(O[C@@H]1Cc2c(O)cc(O)cc2O[C@@H]1c1cc(O)c(O)c(O)c1)c1cc(O)c(O)c(O)c1` [EGCG, Epigallocatechingallate, reference compound] has a TEAC [1, 6] of 4146.4 ± 19.8 µmole TE/g, an FRAP [2] of 7525.0 ± 4.9 µM AAE/g and an ORAC [3, 6] of 3976.8 ± 3.8 µmole TE/g.
